This is an account of results in patent US6300499A, “α1-adrenergic receptor antagonists” (Societe de Conseils de Recherches et d'Applications …, priority 1998, dated 2001).

The target in one experiment is α1-adrenergic receptor. Put plainly: Test of the bond to the α1-adrenergic receptor (inhibition of [3H]prazosin bond to rat cerebral cortex). It counts as binding, rat (male Sprague Dawley). Particulars: [3H]prazosin 0.2 nM, rat cerebral cortex membranes, 30 min, 25° C., pH 7.7. As for the experimental part:
The cerebral cortices of male Sprague Dawley rats are homogenized at 4° C. in Tris-HCl 50 mM pH=7.7 and centrifuged at 50,000 g for 30 minutes at 4° C. The pellets are again suspended in the same buffer and centrifuged again at 50,000 g for 30 minutes at 4° C.
The filters are rinsed three times with the same buffer at 0-4° C. and their radioactivity is tested by liquid scintillation spectrometry.
The specific bonds are obtained by subtracting the non-specific bonds (determined in the presence of 10 μM of phentolamine (Sigma Chemical Co. St. Louis Mo.)) from the total bonds. The data relative to the bonds is analyzed by computer assisted iterative non-linear regression analysis, using the Ligand program (Munson, P. J., Rodbard, D. Anal. Biochem. 107:220 (1980)).

A further experiment deals with prostatic urethrae. Put plainly: Urethra Contraction Test (inhibition of phenylephrine contraction of prostatic urethra). Also on record: species or system rabbit (male New Zealand). Particulars: inhibition of contraction of rabbit prostatic urethra, agonist phenylephrine, compound 30 min before. As for the experimental part:
The urethrae are removed from male New Zealand rabibits, and cleaned of the surrounding connective tissues. Bands of prostatic urethrae (3 mm wide, 10-15 mm long) are suspended (1 g tension) in organ baths containing 10 ml of physiological solution (pH 7.4) at 37° C. under an atmosphere of 95% O2 /5% CO2; NaCl (118 mM); KCl (4.7 mM); CaCl2 (2.5 mM); KH2 PO4 (1.2 mM); MgSO4 (1.2 mM); NaHCO3 (25 mM); glucose (11 mM). The contractile responses are measured using force displacement transducers coupled to a Gould 8000S polygraph. A one hour period of equilibration or equalization is provided before the experiment. After equalization, the preparations are sensitized by a submaximal concentration of phenylephrine. Forty five minutes after the sensitization, a concentration-effect curve for the phenylephrine is established. In order to determine the effect of the test compounds, different preparations originating from the same animal are used in parallel. One preparation serves as a control whilst the others receive a concentration of a test compound introduced into the bath 30 minutes before the phenylephrine (Auguet, M. et al. European J. Pharmacol. 217:153 (1995)).
The dissociation constants (Kb) of the test compounds are determined using the following equation: Kb =[B]/(dose ratio--1); in which [B] is the concentration of test compound and (dose ratio) is the EC50 of phenylephrine in the presence of the test compound divided by the EC50 of the control preparation. These resultats are then expressed as the negative logarithm of Kb. The values of the EC50 are calculated from the maximum contractile response to the phenylephrine by computer analysis using a linear regression over the average tension values. The maximum contractile response of each preparation which was subjected to the test compound is determined by comparing the response provoked by the application of the sensitizing concentration of phenylephrine with the response provoked in the control preparation (which has not received the test compounds).

For another experiment, the system named is aorta of the rat. Put plainly: Test of the contraction of the aorta of the rat (phenylephrine). Further details: species or system rat (male Sprague Dawley). Particulars: agonist phenylephrine, compound 60 min before. On the procedure: (§1) The aorta and the portal vein are extracted from male Sprague Dawley rats (275-350 g, Charles River, France) after cervical dislocation and cleaned of the surrounding connective tissues. […] The contractile responses are measured using force displacement transducers either coupled to a Gould […] polygraph or connected to a data retrieval system ([…], France). A one hour period of equilibration or equalization is provided before the experiment. […] Seventy five minutes, after the sensitization, a concentration-effect curve for the phenylephrine is established. In order to determine the effect of the test compounds, different preparations are used in parallel. One preparation serves as a control whilst the others receive different test compounds introduced into the bath 60 minutes before the aministration of the phenylephrine. The results are expressed as averages ±S.E.M. or percentage of contraction. […] The EC50 values are calculated from the maximum contractile response by computer analysis using a linear regression over the average tension values.

For a further experiment, the system named is portal vein of the rat. The experiment in a line: Test of the contraction of the portal vein of the rat (phenylephrine). Further details: species or system rat (male Sprague Dawley). On the procedure:
as §1

Another experiment has as its system aorta of the rabbit. The experiment in a line: Test of the contraction of the aorta of the rabbit (phenylephrine). Also on record: species or system rabbit (male New Zealand). Particulars: agonist phenylephrine, compound 60 min before. On the procedure: (§2) The aorta and the portal vein are extracted from male New-Zealand rabbits (2.5-3.5 kg, Dombes Romans, France) after cervical dislocation and cleaned of the surrounding connective tissues. […] The contractile responses are measured using force displacement transducers coupled to a Gould RS3400 polygraph. A one hour period of equilibration or equalization is provided before the experiment. […] When the contraction provoked by the phenylephrine is stabilized, carbachol (10 μM) is administered with the aim of controlling the disorganisation of the endothelium in the vessels. Seventy five minutes after the sensitization, a concentration-effect curve for the phenylephrine is established. In order to determine the effect of the test compounds, different preparations are used in parallel. One preparation serves as a control whilst the others receive different concentrations of test compounds introduced into the bath 60 minutes before the phenylephrine. The results are expressed as averages ±S.E.M. or percentage of contraction. […] The EC50 values are calculated from the maximum contractile response by computer analysis using a linear regression over the average tension values.

The subject of experiment [1] is portal vein of the rabbit. Put plainly: Test of the contraction of the portal vein of the rabbit (phenylephrine). Also on record: species or system rabbit (male New Zealand). As for the experimental part:
as §2

Experiment [2] concerns saphenous vein of the rabbit. The experiment in a line: Test of the contraction of the saphenous vein of the rabbit (phenylephrine). Further details: species or system rabbit (male New Zealand). As for the experimental part: The contractile responses are measured using force displacement transducers coupled to a Gould RS3400 polygraph. […] A one hour period of equilibration or equalization is provided before the experiment. During this equalization period, the tension of the venous rings is left to relax and the final tension is maintained at 0.5 g. After equalization, the preparations are sensitized by a submaximal concentration (3 μM) of phenylephrine. When the contraction triggered by the phenylephrine is stabilized, carbachol (10 μM) is administered in order to control the disorganisation of the endothelium in the vessels. Seventy five minutes after the sensitization, a concentration-effect curve for the phenylephrine is established. In order to determine the effect of the test compounds, different preparations are used in parallel. One preparation serves as a control whilst the others receive different test compounds introduced into the bath 60 minutes before the administration of the phenylephrine The results are expressed as averages ±S.E.M. or percentage of contraction. […] The EC50 values are calculated from the maximum contractile response by computer analysis using a linear regression over the average tension values.

As for `N#Cc1ccccc1N1CCN(CCCNC(=O)C(O)(c2ccccc2)c2ccccc2)CC1` [Compound 10, N-[3-{4-(2-cyanophenyl)-1-piperazinyl}-propyl]-α-hydroxy-α-phenyl-benzeneacetamide], the Ki at α1-adrenergic receptor amounted to 27 nM. The “-log Kb” value in the experiment on prostatic urethrae is 8.2.
Take `COC(C(=O)NCCCN1CCN(c2cc(C)ccc2C)CC1)(c1ccccc1)c1ccccc1` [Compound 11, N-[3-{4-(2,5-dimethylphenyl)-1-piperazinyl}-propyl]-α-methoxy-α-phenyl-benzeneacetamide]: the affinity at α1-adrenergic receptor, expressed as Ki, was 38 nM. Moreover, the “-log Kb” value in the experiment with prostatic urethrae is reported as 6.9.
For `COc1ccccc1N1CCN(CCCNC(=O)C(c2ccccc2)c2ccccc2)CC1` [Compound 13, N-[3-{4-(2-methoxyphenyl)-1-piperazinyl}-propyl]-α-phenyl-benzeneacetamide] the same measures were 30 nM and 8.2.
For `COc1ccccc1N1CCN(CCCNC(=O)C(O)(c2ccccc2)c2ccccc2)CC1` [Compound 14, α-hydroxy-N-[3-{4-(2-methoxyphenyl)-1-piperazinyl}-propyl]-α-phenyl-benzeneacetamide] the same measures were 27 nM and 7.8.
For `COc1ccccc1N1CCN(CCCNC(=O)C2c3ccccc3Oc3ccccc32)CC1` [Compound 15, N-[3-{4-(2-methoxyphenyl)-1-piperazinyl}-propyl]-9H-xanthene-9-carboxamide] the same measures were 27 nM and 7.9.
For the molecule `COc1ccccc1N1CCN(CCCNC(=O)C2(O)c3ccccc3-c3ccccc32)CC1` [Compound 16, 9-hydroxy-N-[3-{4-(2-methoxyphenyl)-1-piperazinyl}-propyl]-9H-fluorene-9-carboxamide], the affinity on α1-adrenergic receptor, expressed as Ki, was 41 nM. Besides, the “-log Kb” value in the experiment on prostatic urethrae was 7.8.
As to `COc1ccccc1N1CCN(CCCNC(=O)C(O)(c2ccccc2Cl)c2ccccc2Cl)CC1` [Compound 17, 2-chloro-α-(2-chlorophenyl)-α-hydroxy-N-[3-{4-(2-methoxyphenyl)-1-piperazinyl}-propyl]-α-phenyl-benzeneacetamide], the affinity at α1-adrenergic receptor, expressed as Ki, was 54 nM. For the same molecule, in the experiment on prostatic urethrae, the “-log Kb” value came out at 7.7.
The molecule `Cc1ccc(C)c(N2CCN(CCCNC(=O)C(c3ccccc3)c3ccccc3)CC2)c1` [Compound 20, N-[3-{4-(2,5-dimethylphenyl)-1-piperazinyl}-propyl]-α-phenyl-benzeneacetamide] came in with a Ki on α1-adrenergic receptor of 27 nM. Also, the “-log Kb” value with prostatic urethrae is reported as 7.5.
In turn, `COc1ccc(C(O)(C(=O)NCCCN2CCN(c3cc(C)ccc3C)CC2)c2ccc(OC)cc2)cc1` [Compound 25, N-[3-{4-(2,5-dimethylphenyl)-1-piperazinyl}-propyl]-α-hydroxy-4-methoxy-α-(4-methoxyphenyl)-benzeneacetamide] returned a Ki at α1-adrenergic receptor of 29 nM. The “-log Kb” value with prostatic urethrae is 7.6.
Molecule `Cc1ccc(C)c(N2CCN(CCCNC(=O)[C@@](C)(O)c3ccccc3)CC2)c1` [Compound 45, S-(+)-N-[3-{4-(2,5-dimethylphenyl)-1-piperazinyl}-propyl]-α-hydroxy-α-methyl-benzeneacetamide] registered a Ki at α1-adrenergic receptor of 13 nM. Moreover, in the experiment on prostatic urethrae, the “-log Kb” value is listed as 8.3. Also, the Kb worked out at 45 nM in the experiment with aorta of the rat; 1.4 nM in the experiment with portal vein of the rat (rat portal vein, agonist phenylephrine, compound 60 min before); 63 nM with aorta of the rabbit; 1.6 nM in experiment [1] (rabbit portal vein, agonist phenylephrine, compound 60 min before); 15 nM in experiment [2] (rabbit saphenous vein, agonist phenylephrine, compound 60 min before). The “Selectivity Kb (Aorta)/Kb (Vein)” value with portal vein of the rat (rat, aorta / portal vein) came out at 32; in experiment [1] (rabbit, aorta / portal vein) it was 40. Besides, in experiment [2] (rabbit, saphenous vein / portal vein), the “Selectivity Kb (Salphenous vein)/Kb (Portal vein)” value amounted to 8.4.
For the molecule `Cc1ccc(C)c(N2CCN(CCCNC(=O)[C@](C)(O)c3ccccc3)CC2)c1` [Compound 46, R-(-)-N-[3-{4-(2,5-dimethylphenyl)-1-piperazinyl}-propyl]-α-hydroxy-α-methyl-benzeneacetamide], affinity on α1-adrenergic receptor was put at a Ki of 48 nM. Besides, in the experiment on prostatic urethrae, the “-log Kb” value was 7.5.

By Ki is commonly meant a measure of affinity in units of concentration, obtained from inhibition or displacement.
